Tested on: TgAPP mice
Test: Elevated plus maze, TgAPP mice
Format: in vivo, mouse
Details: 45 mg/kg IP, 6 wk, vs DMSO
Experimental: The elevated plus maze was performed using a standard set up, with two enclosed arms and two open arms. Mice were placed at the intersection of the open and closed arms and allowed to freely explore for 5 min, two times. Time spent in the open and closed arms and number of entries into the open and closed arms were recorded.

Cc1cccc(-c2cc3nccc(N4CCOCC4)c3s2)c1 [BK40197]
elevated plus maze: time in the open arms: spent significantly greater time in the open arms of the elevated plus maze
